Structures can show the parent of a compound that is named as a salt.
Columns and labels:
Format in all cases: cell-based, human
NCIH727 = experiment: CellTiter-Glo Reagent cancer cell line proliferation assay, NCIH727; details: NCIH727, KRAS(G12V) heterozygous
Description: (§1) The following cancer cell lines were employed: • AsPC-1 human pancreatic adenocarcinoma, homozygous KRAS(G12D), (ATCC, #CRL-1682); A-427 human lung carcinoma, heterozygous KRAS(G12D), (ATCC, #HTB-53); AGS human gastric adenocarcinoma, heterozygous KRAS(G12D), (ATCC, #CRL-1739); GP2D human colon adenocarcinoma, heterozygous KRAS(G12D), (Sigma Aldrich, 95090714); SW1990 human pancreatic adenocarcinoma, homozygous KRAS(G12D), (ATCC, #CRL2172); LU65A human lung giant cell carcinoma, heterozygous KRAS(G12C), (JCRB Cell Bank, #JCRB0054); NCIH727 human lung carcinoid, heterozygous KRAS(G12V), (ATCC, #CRL-5815); MKN1 human gastric adenosquamous carcinoma KRAS (wt), (JCRB Cell Bank, #JCRB0252). Cell lines were cultured according to ATCC, JCRB and Sigma Aldrich recommendations.
(§2) Cells were plated in 96-well tissue culture plates at 4,000 cells/well and incubated at 37° C./5% CO2 for 24 hr in 100 μl of media. 3-fold serial dilutions of each test compound were prepared ranging from 20 μM to 1.02 nM. Cells were then treated with test compounds at various concentrations with a final concentration of 0.5% DMSO/well, and then incubated at 37° C./5% CO2 for 24 hr. 100 μl of CellTiter-Glo® Reagent (Promega Corporation, Madison, WI) was added to each well and processed according manufacturer's protocol. Results were analyzed and IC50-values were calculated in GraphPad 7 software.

LU65A = experiment: CellTiter-Glo Reagent cancer cell line proliferation assay, LU65A; details: KRAS(G12C) heterozygous
Description: as §1, §2

AGS = experiment: CellTiter-Glo Reagent cancer cell line proliferation assay, AGS; details: KRAS(G12D) heterozygous
Description: as §1, §2

SMILES	IC50 (NCIH727; Homo sapiens, NCI-H727, 24 h) [nM]	IC50 (LU65A; Homo sapiens, 24 h) [nM]	IC50 (AGS; Homo sapiens, 24 h) [nM]	IC50 (NCIH727; 24 hr) [nM]	IC50 (LU65A; 24 hr) [nM]	IC50 (AGS; 24 hr) [nM]
C#Cc1c(F)ccc2cc(O)cc(-c3nc(OC)c4c(N5CCCOC6CC65)nc(OCC5(CN6CCN(CC7CCN(c8ccc9c(c8)CN(C8CCC(=O)NC8=O)C9=O)CC7)CC6)CC5)nc4c3F)c12 (stereo not shown) [Compound 157]	< 100	< 100	< 100	–	–	–
N#CCCC(=O)N1C2CCC1CN(c1nc(OCC3(CN4CCN(CC5CCN(c6ccc7c(c6)CN(C6CCC(=O)NC6=O)C7=O)CC5)CC4)CC3)nc3c(F)c(-c4cc(N)cc(Cl)c4C(F)(F)F)c(Cl)cc13)C2 (stereo not shown) [Compound 153]	< 100	< 100	< 100	–	–	–
C#Cc1c(F)ccc2cc(O)cc(-c3ncc4c(N5CC6CCC(C5)N6C(=O)Cn5cc(COCCOCCOCCNc6ccc7c(c6)CN(C6CCC(=O)NC6=O)C7=O)nn5)nc(OCC56CCCN5C[C@@H](F)C6)nc4c3F)c12 (stereo partly shown) [Compound 141]	< 100	< 100	< 100	–	–	–
C#Cc1c(F)ccc2cc(O)cc(-c3ncc4c(N5CC6CCC(C5)N6C(=O)CC(C)C#N)nc(OCC5(CN6CC7CC7C6)CC5)nc4c3OCc3ccc(-c4cn([C@H](C(=O)N5C[C@H](O)C[C@H]5C(=O)N[C@@H](CO)c5ccc(-c6ccnn6CC)cc5)C(C)C)nn4)cc3)c12 (stereo partly shown) [Compound 140]	–	–	–	< 100	< 100	< 100
C#Cc1c(F)ccc2cc(O)cc(-c3ncc4c(N5CCCOC6CC65)nc(OCC5(CN6CCN(CC7CCN(c8ccc9c(c8)CN(C8CCC(=O)NC8=O)C9=O)CC7)CC6)CC5)nc4c3F)c12 (stereo not shown) [Compound 139]	> 1000	> 1000	> 1000	–	–	–
C#Cc1c(F)ccc2cc(O)cc(-c3ncc4c(N5CC6CCC(C5)N6C(=O)CC(C)C#N)nc(OCC5(CN6CC7CC7C6)CC5)nc4c3OCc3ccc(-c4cn([C@H](C(=O)N5C[C@H](O)C[C@H]5C(=O)N[C@@H](CO)c5ccc(-c6ccnn6CC)cc5)C(C)C)nn4)cc3)c12 (stereo partly shown) [Compound 138]	–	–	–	> 1000	> 1000	> 1000
C#Cc1c(F)ccc2cc(O)cc(-c3nc(OC)c4c(N5CCCO[C@H]6C[C@H]65)nc(OCC5(CN6CCN(CC7CCN(c8ccc9c(c8)CN(C8CCC(=O)NC8=O)C9=O)CC7)CC6)CC5)nc4c3F)c12 (stereo partly shown) [Compound 164]	< 100	< 100	< 100	–	–	–
C#Cc1c(F)ccc2cc(O)cc(-c3nc(OC)c4c(N5CCCO[C@@H]6C[C@@H]65)nc(OCC5(CN6CCN(CC7CCN(c8ccc9c(c8)CN([C@H]8CCC(=O)NC8=O)C9=O)CC7)CC6)CC5)nc4c3F)c12 [Compound 165]	< 100	< 100	< 100	–	–	–
C#Cc1c(F)ccc2cc(O)cc(-c3ncc4c(N5CC6CCC(C5)N6C(=O)CC(C)C#N)nc(OCC5(CN6CCN(CC7CCN(c8ccc9c(c8)CN(C8CCC(=O)N(C)C8=O)C9=O)CC7)CC6)CC5)nc4c3F)c12 (stereo not shown) [Compound 130]	100 to 1000	100 to 1000	100 to 1000	–	–	–
C#Cc1c(F)ccc2cc(O)cc(-c3nc(OC)c4c(N5CC6CCC(C5)N6C(=O)C[C@@H](C)C#N)nc(OCC5(CN6CCN(CN7CCC(N8Cc9cc%10c(cc9C8)C(=O)N(C8CCC(=O)NC8=O)C%10)CC7)CC6)CC5)nc4c3F)c12 (stereo partly shown) [Compound 162]	< 100	< 100	< 100	–	–	–
C#Cc1c(F)ccc2cc(O)cc(-c3nc(OC)c4c(N5CCCOCC5)nc(OCC5(CN6CCN(CC7CCN(c8ccc9c(c8)CN(C8CCC(=O)NC8=O)C9=O)CC7)CC6)CC5)nc4c3F)c12 (stereo not shown) [Compound 127]	< 100	< 100	< 100	–	–	–
C#Cc1c(F)ccc2cc(O)cc(-c3nc(OC)c4c(N5CC6CCC(C5)N6C(=O)CC(C)C#N)nc(OCC5(CN6CCC(CN7CCC(c8ccc9c(c8)CN(C8CCC(=O)NC8=O)C9=O)C(F)(F)C7)CC6)CC5)nc4c3F)c12 (stereo not shown) [Compound 161]	< 100	< 100	< 100	–	–	–
C#Cc1c(F)ccc2cc(O)cc(-c3ncc4c(N5CC6CCC(C5)N6C(=O)NC5CCC5)nc(OCC5(CN6CCN(CC7CCN(c8ccc9c(c8)CN(C8CCC(=O)NC8=O)C9=O)CC7)CC6)CC5)nc4c3F)c12 (stereo not shown) [Compound 128]	< 100	< 100	< 100	–	–	–
C#Cc1c(F)ccc2cc(O)cc(-c3nc4c5c(nc(OCC6(CN7CCN(CC8CCN(c9ccc%10c(c9)CN(C9CCC(=O)NC9=O)C%10=O)CC8)CC7)CC6)nc5c3F)N(CC(F)F)[C@@H](C)CO4)c12 (stereo partly shown) [Compound 158]	< 100	< 100	< 100	–	–	–
C#Cc1c(F)ccc2cc(O)cc(-c3nc(OC)c4c(N5CC6CCC(C5)N6C(=O)CC(C)C#N)nc(OCC5CCCN(CC6CCN(c7ccc8c(c7)CN(C7CCC(=O)NC7=O)C8=O)CC6)C5)nc4c3F)c12 (stereo not shown) [Compound 146]	< 100	< 100	< 100	–	–	–
C#Cc1c(F)ccc2cc(O)cc(-c3ncc4c(N5CCCOCC5)nc(OCC5(CN6CCN(CC7CCN(c8ccc9c(c8)CN(C8CCC(=O)NC8=O)C9=O)CC7)CC6)CC5)nc4c3F)c12 (stereo not shown) [Compound 134]	< 100	< 100	< 100	–	–	–
C#Cc1cccc2cccc(-c3ncc4c(N5CC6CCC(C5)N6)nc(OCCN5CCN(Cc6ccc7c(c6)C(=O)N(C6CCC(=O)NC6=O)C7=O)CC5)nc4c3F)c12 (stereo not shown) [Compound 1, 5-((4-(2-((4-(3,8-diazabicyclo[3.2.1]octan-3-yl)-7-(8-ethynylnaphthalen-1-yl)-8-fluoropyrido[4,3-d]pyrimidin-2-yl)oxy)ethyl)piperazin-1-yl)methyl)-2-(2,6-dioxopiperidin-3-yl) isoindoline-1,3-dione hydrochloride]	–	–	> 1000	–	–	–

Next, values leading:

IC50 (NCIH727; Homo sapiens, NCI-H727, 24 h) [nM]	IC50 (LU65A; Homo sapiens, 24 h) [nM]	IC50 (AGS; Homo sapiens, 24 h) [nM]	IC50 (NCIH727; 24 hr) [nM]	IC50 (LU65A; 24 hr) [nM]	IC50 (AGS; 24 hr) [nM]	SMILES
< 100	< 100	< 100	–	–	–	C#Cc1c(F)ccc2cc(O)cc(-c3nc(OC)c4c(N5CC6CCC(C5)N6C(=O)C(C#N)CC#N)nc(OCC5(CN6CCN(CC7CCN(c8ccc9c(c8)CN(C8CCC(=O)NC8=O)C9=O)CC7)CC6)CC5)nc4c3F)c12 (stereo not shown) [Compound 126]
< 100	< 100	< 100	–	–	–	C#Cc1c(F)ccc2cc(O)cc(-c3nc(OC)c4c(N5CC6CCC(C5)N6C(=O)C[C@@H](C)C#N)nc(OCC5(CN6CCN(CC7CCN(c8ccc9c(c8)CN(C8CCC(=O)NC8=O)C9=O)CC7)CC6)CC5)nc4c3F)c12 (stereo partly shown) [Compound 143]
< 100	< 100	< 100	–	–	–	C#Cc1c(F)ccc2cc(O)cc(-c3nc(OC)c4c(N5CC6CCC(C5)N6C(=O)CCC#N)nc(OCC5(CN6CCC(CN7CCC(N8Cc9cc%10c(cc9C8)C(=O)N(C8CCC(=O)NC8=O)C%10)CC7)CC6)CC5)nc4c3F)c12 (stereo not shown) [Compound 163]
< 100	< 100	< 100	–	–	–	C#Cc1c(F)ccc2cc(O)cc(-c3nc(OC)c4c(N5CC6CCC(C5)N6C(=O)CC(C)C#N)nc(OCC5(CN6CCN(CC7CCN(c8ccc9c(c8)CN(C8CCC(=O)NC8=O)C9=O)CC7)CC6)CC5)nc4c3F)c12 (stereo not shown) [Compound 135]
< 100	< 100	< 100	–	–	–	C#Cc1c(F)ccc2cc(O)cc(-c3ncc4c(N5CC6CCC(C5)N6C(=O)CC(C)C#N)nc(OCC5(CN6CCN(CC7CCN(c8ccc9c(c8)n(C)c(=O)n9C8CCC(=O)NC8=O)CC7)CC6)CC5)nc4c3F)c12 (stereo not shown) [Compound 136]
< 100	< 100	< 100	–	–	–	C#Cc1c(F)ccc2cc(O)cc(-c3nc(OC)c4c(N5CC6CCC(C5)N6C(=O)CC(C)C#N)nc(OCC5(CN6CCN(CC7CCN(c8cccc(NC9CCC(=O)NC9=O)c8)CC7)CC6)CC5)nc4c3F)c12 (stereo not shown) [Compound 142]
< 100	< 100	< 100	–	–	–	C#Cc1c(F)ccc2cc(O)cc(-c3nc(OC)c4c(N5CC6CCC(C5)N6C(=O)CCC#N)nc(OCC5(CN6CCN(CC7CCN(c8ccc9c(N%10CCC(=O)NC%10=O)nn(C)c9c8)CC7)CC6)CC5)nc4c3F)c12 [Compound 159]
< 100	< 100	< 100	–	–	–	C#Cc1c(F)ccc2cc(O)cc(-c3nc(OC)c4c(N5CC6CCC(C5)N6C(=O)C[C@@H](C)C#N)nc(OCC5(CN6CCN(CC7CCN(c8ccc9c(N%10CCC(=O)NC%10=O)nn(C)c9c8)CC7)CC6)CC5)nc4c3F)c12 [Compound 160]
< 100	< 100	< 100	–	–	–	C#Cc1c(F)ccc2cc(O)cc(-c3ncc4c(N5CC6CCC(C5)N6C(=O)CC(C)C#N)nc(OCC5(CN6CCN(CC7CCN(c8ccc9c(c8)CN(C8CCC(=O)NC8=O)C9=O)CC7)CC6)CC5)nc4c3F)c12 (stereo not shown) [Compound 129]
< 100	< 100	< 100	–	–	–	C#Cc1c(F)ccc2cc(O)cc(-c3nc(OC)c4c(N5CC6CCC(C5)N6C(=O)CC(C)C#N)nc(OCC5(CN6CCN(CC7CCN(c8ccc9c(N%10CCC(=O)NC%10=O)nn(C)c9c8)CC7)CC6)CC5)nc4c3F)c12 (stereo not shown) [Compound 152]
< 100	< 100	< 100	–	–	–	C#Cc1c(F)ccc2cc(O)cc(-c3ncc4c(N5CC6CCC(C5)N6C(=O)CC(C)(C)C#N)nc(OCC5(CN6CCN(CC7CCN(c8ccc9c(c8)CN(C8CCC(=O)NC8=O)C9=O)CC7)CC6)CC5)nc4c3F)c12 (stereo not shown) [Compound 131]

— US20260325654A1, “METHODS AND COMPOSITIONS FOR TARGETED PROTEIN DEGRADATION” (Ranok Therapeutics (Hangzhou) Co. Ltd., priority 2023, published 2026)
